Read-outs that look alike come from different tables or passages of the source. Numbered stars: 1 amine (or outer) side, 2 acyl side, 3 side chain; on linkers, the order of the positions; unused ones are H or OH. Bridge positions count the residues as written; N and C are the ends. Square brackets hold non-standard residues; d marks the D form. Peptide text beside a SMILES is read from it. * marks the point of attachment. hTyr(3S-OH,4S-OH,3'-OSO3H) = N[C@H](C(=O)O)[C@H](O)[C@@H](O)c1ccc(O)c(OS(=O)(=O)O)c1; Orn(4R-OH,5R-OH) = O=C([C@H](C[C@@H](O)[C@@H](O)N[*:3])N[*:1])[*:2]; Pro(3S-OH,4S-Me) = C[C@H]1CN[C@H](C(=O)O)[C@H]1O; X1 = CCCCCOc1ccc(-c2cc(-c3ccc(C(=O)*)cc3)no2)cc1; Gln(3R-OH) = NC(=O)C[C@@H](O)[C@H](N)C(=O)O; Hyp = O=C(O)[C@@H]1C[C@@H](O)CN1
Assays:
[1] = cited from earlier work; for Cmax / Mean weight-adjusted CLss: children; for Mean AUCtau: febrile, neutropenic children with deep mycoses
[2] = cited from earlier work
Safety assessments = type: in vivo, human; conditions: for AE leading to discontinuation / Any AE / Any SAE / Deaths: SAF, number of children (%)
[3] = adults, cited from earlier work
[4] = Plasma micafungin pharmacokinetics on day 7, Studies 2101 and 2102; type: in vivo, human; conditions: for Cmax / tmax / AUCtau / CLss / CLss/wt: day 7 plasma
[5] = pooled analysis of Phase I, II, III trials, 296 children
[6] = Study 2101, 3 mg/kg, 6–11 years (n = 13)
[7] = Study 2101, 3 mg/kg, 12–16 years (n = 12)
[8] = Study 2101, 4.5 mg/kg, 2–5 years (n = 31)
[9] = Study 2101, 4.5 mg/kg, 6–11 years (n = 20)
[10] = Study 2102, 4.5 mg/kg, 4 months–<2 years (n = 9)
[11] = Study 2101, 3 mg/kg i.v. once daily, 6–11 years (n = 4), min–max
[12] = Study 2101, 3 mg/kg i.v. once daily, 12–16 years (n = 8), median
[13] = Study 2101, 3 mg/kg i.v. once daily, 12–16 years (n = 8), min–max
[14] = Study 2101, 4.5 mg/kg i.v. once daily, 2–5 years (n = 8), median
[15] = Study 2101, 4.5 mg/kg i.v. once daily, 2–5 years (n = 8), min–max
[16] = Study 2101, 4.5 mg/kg i.v. once daily, 6–11 years (n = 3), median
[17] = Study 2101, 4.5 mg/kg i.v. once daily, 6–11 years (n = 3), min–max
[18] = Study 2101, 4.5 mg/kg i.v. once daily, 12–16 years (n = 1), mean
[19] = Study 2101, 4.5 mg/kg i.v. once daily, 12–16 years (n = 1), median

CCCCCOc1ccc(-c2cc(-c3ccc(C(=O)N[C@H]4C[C@@H](O)[C@@H](O)NC(=O)[C@@H]5[C@@H](O)[C@@H](C)CN5C(=O)[C@H]([C@H](O)CC(N)=O)NC(=O)[C@H]([C@H](O)[C@@H](O)c5ccc(O)c(OS(=O)(=O)O)c5)NC(=O)[C@@H]5C[C@@H](O)CN5C(=O)[C@H]([C@@H](C)O)NC4=O)cc3)no2)cc1 [micafungin] (X1-[Orn(4R-OH,5R-OH)]T[Hyp][hTyr(3S-OH,4S-OH,3'-OSO3H)][Gln(3R-OH)][Pro(3S-OH,4S-Me)]; lactam 1-C)
Cmax ([1]; 3 mg/kg): 30400 ng/mL
Mean weight-adjusted CLss ([1]; 3 mg/kg): 0.283 mL/min/kg
Cmax ([1]; 4 mg/kg): 43500 ng/mL
Mean weight-adjusted CLss ([1]; 4 mg/kg): 0.237 mL/min/kg
Mean AUCtau ([1]; 3 mg/kg): 190.5 µg·h/mL
Mean AUCtau ([1]; 4.0 mg/kg): 301.9 µg·h/mL
Overall incidence of liver function abnormalities ([2]; pooled analysis of 3028 adult and pediatric patients): ≤ 3%
Adverse events (AEs) [2, 5]: 92%
Serious adverse events (SAEs) [2, 5]: ~34%
AEs related to micafungin treatment ([2]; pooled analysis, 296 children): 27%
Related AEs/SAEs leading to discontinuation of therapy ([2]; pooled analysis, 296 children): 2%
SAEs related to micafungin treatment ([2]; pooled analysis, n = 14/296 children): 5%
Deaths considered related to micafungin treatment or to fungal infection (Safety assessments; Studies 2101 and 2102): None
Liver function abnormalities (Safety assessments; Study 2101 (Table 3)): 4–6%
AE leading to discontinuation (Safety assessments; [6]): 0
Any AE (Safety assessments; [6]): 9 (69)
Any SAE (Safety assessments; [6]): 1 (8)
Deaths (Safety assessments; [6]): 0
AE leading to discontinuation (Safety assessments; [7]): 2 (17)
Any AE (Safety assessments; [7]): 11 (92)
Any SAE (Safety assessments; [7]): 3 (25)
Deaths (Safety assessments; [7]): 1 (8)
AE leading to discontinuation (Safety assessments; [8]): 1 (3)
Any AE (Safety assessments; [8]): 25 (81)
Any SAE (Safety assessments; [8]): 3 (10)
Deaths (Safety assessments; [8]): 0
AE leading to discontinuation (Safety assessments; [9]): 1 (5)
Any AE (Safety assessments; [9]): 16 (80)
Any SAE (Safety assessments; [9]): 2 (10)
Deaths (Safety assessments; [9]): 2 (10)
AE leading to discontinuation (Safety assessments; Study 2101, Total (n = 78)): 4 (5)
Any AE (Safety assessments; Study 2101, Total (n = 78)): 62 (80)
Any SAE (Safety assessments; Study 2101, Total (n = 78)): 9 (12)
Deaths (Safety assessments; Study 2101, Total (n = 78)): 3 (4)
AEs that led to permanent discontinuation of micafungin (Safety assessments; Study 2101, four children, all possibly or probably related): 5%
Permanent discontinuation due to hypomagnesemia (Safety assessments; Study 2101, n = 1/78): 1%
Permanent discontinuation due to pyrexia (Safety assessments; Study 2101, n = 1/78): 1%
Permanent discontinuation due to infusion-associated symptoms (Safety assessments; Study 2101, n = 2/78): 3%
SAEs considered related to micafungin treatment (Safety assessments; Study 2101, n = 2/78): 3%
AE considered related to micafungin: hypomagnesemia (Safety assessments; Study 2101, n = 5/78): 6%
Children with SAEs who recovered with no residual effects (Safety assessments; Study 2101, n = 6/9): 67%
AE considered related to micafungin: pyrexia (Safety assessments; Study 2101, n = 7/78): 9%
AE considered related to micafungin: infusion-associated symptoms (hypotension, hypertension, cyanosis) (Safety assessments; Study 2101, n = 9/78): 12%
Children experiencing SAEs other than death (Safety assessments; Study 2101, n = 9/78): 12%
AE vomiting (Safety assessments; Study 2101, n = 10/78): 13%
AE hypokalemia (Safety assessments; Study 2101, n = 11/78): 14%
AE pyrexia (Safety assessments; Study 2101, n = 15/78): 19%
Children experiencing at least one AE (Safety assessments; Study 2101, n = 62/78): 80%
AE leading to discontinuation (Safety assessments; [10]): 2 (22)
Any AE (Safety assessments; [10]): 9 (100)
Any SAE (Safety assessments; [10]): 5 (56)
Deaths (Safety assessments; [10]): 1 (11)
SAEs considered related to micafungin treatment (Safety assessments; Study 2102, n = 1/9 (pathological fracture, possibly related)): 11%
Children with SAEs who recovered with no residual effects (Safety assessments; Study 2102, n = 4/5): 80%
Children experiencing SAEs other than death (Safety assessments; Study 2102, n = 5/9): 56%
Abnormal liver function tests (NOS) considered related to micafungin (Safety assessments; Study 2102, one child of 9): 11%
AEs that led to permanent discontinuation of micafungin (Safety assessments; Study 2102, two children): 22%
Tolerability (Safety assessments; once-daily 3 mg/kg and 4.5 mg/kg, children and adolescents with proven, probable, or suspected Candida infection): well tolerated
AUCtau ([3]; 100 mg/day): 101.6 µg·h/mL
AUCtau ([3]; 150 mg/day): 166.7 µg·h/mL
Cmax ([4]; Study 2101, 3 mg/kg i.v. once daily, 6–11 years (n = 4), mean (SD), SD): 20.8 (4.1) µg/mL
tmax ([4]; Study 2101, 3 mg/kg i.v. once daily, 6–11 years (n = 4), median): 1.1 h
AUCtau [4, 11]: 191.8 to 300.1 µg·h/mL
CLss [4, 11]: 344.8 to 625.7 mL/h
CLss/wt [4, 11]: 0.167 to 0.257 mL/min/kg
Cmax [4, 11]: 16.8 to 24.8 µg/mL
tmax [4, 11]: 1.0 to 1.2 h
CLss [4, 12]: 757.2 mL/h
tmax [4, 12]: 1.1 h
AUCtau [4, 13]: 158.9 to 240.1 µg·h/mL
CLss [4, 13]: 512.6 to 944.2 mL/h
CLss/wt [4, 13]: 0.158 to 0.317 mL/min/kg
Cmax [4, 13]: 12.2 to 44.5 µg/mL
tmax [4, 13]: 1.0 to 2.0 h
CLss [4, 14]: 222.9 mL/h
Cmax [4, 14]: 21.9 µg/mL
AUCtau [4, 15]: 110.0 to 335.4 µg·h/mL
CLss [4, 15]: 132.7 to 490.9 mL/h
CLss/wt [4, 15]: 0.223 to 0.682 mL/min/kg
Cmax [4, 15]: 8.4 to 28.7 µg/mL
tmax [4, 15]: 1.0 to 2.1 h
AUCtau [4, 16]: 264.4 µg·h/mL
CLss [4, 16]: 332.1 mL/h
Cmax [4, 16]: 20.2 µg/mL
tmax [4, 16]: 2.1 h
AUCtau [4, 17]: 245.7 to 325.2 µg·h/mL
CLss [4, 17]: 255.3 to 384.7 mL/h
CLss/wt [4, 17]: 0.23 to 0.305 mL/min/kg
Cmax [4, 17]: 17.9 to 24.0 µg/mL
tmax [4, 17]: 2.0 to 2.1 h
AUCtau [4, 18]: 339.0 µg·h/mL
CLss [4, 18]: 306.8 mL/h
CLss/wt [4, 18]: 0.222 mL/min/kg
Cmax [4, 18]: 24.9 µg/mL
tmax [4, 18]: 1.1 h
AUCtau [4, 19]: 339.0 µg·h/mL
CLss [4, 19]: 306.8 mL/h
CLss/wt [4, 19]: 0.222 mL/min/kg
Cmax [4, 19]: 24.9 µg/mL
tmax [4, 19]: 1.1 h
CLss/wt, single child with highest value ([4]; Study 2101, 4.5 mg/kg, 2–5 years, single child, day 7): 0.682 mL/min/kg
AUC(0-t) ([4]; human, plasma, iv, 4.5 mg/kg, Mean AUCtau, Study 2102): ~300 µg·h/mL
